The conditions of series [1]: cited from earlier work.
For series [2] the following is noted: cited from earlier work; for solubility (in words): water; for water solubility at room temperature: pure (>95% w/w) compound, room temperature (25° C.).
A short description of series [3]: Solubility in RO water at room temperature (25° C.) within 5 minutes, soluble if <10 FAU turbidity. The conditions noted are these: crystalline material. It is filed as physicochemical. As for the experimental part: Hereinafter, unless specified otherwise, the solubility of material is determined in RO (reverse osmosis) water at room temperature (25° C.) within 5 minutes.
Hereinafter, where the solubility is expressed as “%”, it to be understood as number of grams of material soluble in 100 grams of solvent.
Hereinafter, the descriptive terms for solubility are provided according to definitions in Combined Compendium of Food Additive Specifications Vol. 4 (FAO JECFA Monographs 1, Rome 2006, page 41).
Procedure: Unless otherwise specified, transfer a known amount of the sample into a flask containing known amount of the specified solvent, shake for no less than 30 sec and no more than 5 min.”
The material is deemed soluble at certain concentration if the produced solution has <10 FAU (Formazin Attenuation Unit) turbidity value.

Molecules are shown by their SMILES. Read-outs that look alike come from different tables or passages of the source.

Data on 6 compounds can be found in US11149050B2, “Highly soluble steviol glycosides” (PureCircle USA Inc., priority 2016, dated 2021).

For the compound `C=C1C[C@@]23CC[C@H]4[C@@](C)(CCC[C@@]4(C)C(=O)O[C@@H]4O[C@H](CO)[C@@H](O)[C@H](O)[C@H]4O)[C@@H]2CC[C@]1(O[C@@H]1O[C@H](CO)[C@@H](O)[C@H](O[C@@H]2O[C@H](CO)[C@@H](O)[C@H](O)[C@H]2O)[C@H]1O[C@@H]1O[C@H](CO)[C@@H](O)[C@H](O)[C@H]1O)C3` [Form 1, Rebaudioside A], the “Rate of dissolution in H2O at 25° C. (descriptive)” value (shortened to “Rate of dissolution … (descriptive)”) in series [1] is on record as “Very low”. In addition, the “Rate of dissolution in H2O at 25° C.” value in series [1] (in 60 minutes) is given as “(<0.2% in 60”. For the same compound, in series [2] (listed as hydrate form of Rebaudioside A), the “solubility (in words)” value is recorded as “lowest solubility”.

In the case of `C=C1C[C@@]23CC[C@H]4[C@@](C)(CCC[C@@]4(C)C(=O)O[C@@H]4O[C@H](CO)[C@@H](O)[C@H](O)[C@H]4O)[C@@H]2CC[C@]1(O[C@@H]1O[C@H](CO)[C@@H](O)[C@H](O[C@@H]2O[C@H](CO)[C@@H](O)[C@H](O)[C@H]2O)[C@H]1O[C@@H]1O[C@H](CO)[C@@H](O)[C@H](O)[C@H]1O)C3` [Form 2, Rebaudioside A], the “Rate of dissolution … (descriptive)” value in series [1] was “Intermediate”. In series [1] (in 5 minutes), the “Rate of dissolution in H2O at 25° C.” value was “(<30% in 5”.

For `C=C1C[C@@]23CC[C@H]4[C@@](C)(CCC[C@@]4(C)C(=O)O[C@@H]4O[C@H](CO)[C@@H](O)[C@H](O)[C@H]4O)[C@@H]2CC[C@]1(O[C@@H]1O[C@H](CO)[C@@H](O)[C@H](O[C@@H]2O[C@H](CO)[C@@H](O)[C@H](O)[C@H]2O)[C@H]1O[C@@H]1O[C@H](CO)[C@@H](O)[C@H](O)[C@H]1O)C3` [Form 3, Rebaudioside A], in series [1], the “Rate of dissolution … (descriptive)” value is on record as “High”. Moreover, in series [1] (in 5 minutes), the “Rate of dissolution in H2O at 25° C.” value was “(>30% in”.

`C=C1C[C@@]23CC[C@H]4[C@@](C)(CCC[C@@]4(C)C(=O)O[C@@H]4O[C@H](CO)[C@@H](O)[C@H](O)[C@H]4O)[C@@H]2CC[C@]1(O[C@@H]1O[C@H](CO)[C@@H](O)[C@H](O[C@@H]2O[C@H](CO)[C@@H](O)[C@H](O)[C@H]2O)[C@H]1O[C@@H]1O[C@H](CO)[C@@H](O)[C@H](O)[C@H]1O)C3` [Form 4, Rebaudioside A]: the “Rate of dissolution … (descriptive)” value in series [1] is “High”. Further, in series [1] (in 5 minutes), the “Rate of dissolution in H2O at 25° C.” value is listed as “(>35% in”. The “solubility (in words)” value in series [2] (listed as rebaudioside A amorphous forms) is on record as “high solubility”.

With `C=C1C[C@@]23CC[C@H]4[C@@](C)(CCC[C@@]4(C)C(=O)O[C@@H]4O[C@H](CO)[C@@H](O)[C@H](O)[C@H]4O[C@@H]4O[C@H](CO)[C@@H](O)[C@H](O)[C@H]4O)[C@@H]2CC[C@]1(O[C@@H]1O[C@H](CO)[C@@H](O)[C@H](O[C@@H]2O[C@H](CO)[C@@H](O)[C@H](O)[C@H]2O)[C@H]1O[C@@H]1O[C@H](CO)[C@@H](O)[C@H](O)[C@H]1O)C3` [Rebaudioside D], in series [2], the “water solubility at room temperature” value is given as “less than 0.05%” and the “solubility (in words)” value is reported as “very low water solubility”. The “solubility, JECFA descriptive term” value in series [3] is reported as “very slightly soluble”.

Consider `C=C1C[C@@]23CC[C@H]4[C@@](C)(CCC[C@@]4(C)C(=O)O[C@@H]4O[C@H](CO)[C@@H](O)[C@H](O[C@@H]5O[C@H](CO)[C@@H](O)[C@H](O)[C@H]5O)[C@H]4O[C@@H]4O[C@H](CO)[C@@H](O)[C@H](O)[C@H]4O)[C@@H]2CC[C@]1(O[C@@H]1O[C@H](CO)[C@@H](O)[C@H](O[C@@H]2O[C@H](CO)[C@@H](O)[C@H](O)[C@H]2O)[C@H]1O[C@@H]1O[C@H](CO)[C@@H](O)[C@H](O)[C@H]1O)C3` [Rebaudioside M], for which, in series [2], the “water solubility at room temperature” value is given as “about 0.1%” and the “solubility (in words)” value is “very low water solubility”. The “solubility (in words)” value in series [2] (listed as rebaudioside M) is on record as “poor aqueous solubility”. Further, in series [3], the “solubility, JECFA descriptive term” value is “very slightly soluble”.
